Source: ChEMBL document CHEMBL5634115, “Exploring novel anticancer pyrazole benzenesulfonamides featuring tail approach strategy as carbonic anhydrase inhibitors” (Eur J Med Chem, 2023)

Experiments:
Carbonic anhydrase 9 = Carbonic anhydrase 9 (Homo sapiens, UniProt Q16790)
Description: Binding affinity to human CA9 assessed as inhibition constant

Carbonic anhydrase 12 [1] = target: T1, Carbonic anhydrase 12 (Homo sapiens, UniProt O43570)
Description: Binding affinity to human CA12 assessed as inhibition constant

Carbonic anhydrase 12 [2] = target: T1, Carbonic anhydrase 12; remark: listed apart in the source
Description: Inhibition of human carbonic anhydrase 12 preincubated for 15 mins followed by substrate addition and measured after 30 mins by spectrophotometric method

T1 sequence (O43570 whole entry): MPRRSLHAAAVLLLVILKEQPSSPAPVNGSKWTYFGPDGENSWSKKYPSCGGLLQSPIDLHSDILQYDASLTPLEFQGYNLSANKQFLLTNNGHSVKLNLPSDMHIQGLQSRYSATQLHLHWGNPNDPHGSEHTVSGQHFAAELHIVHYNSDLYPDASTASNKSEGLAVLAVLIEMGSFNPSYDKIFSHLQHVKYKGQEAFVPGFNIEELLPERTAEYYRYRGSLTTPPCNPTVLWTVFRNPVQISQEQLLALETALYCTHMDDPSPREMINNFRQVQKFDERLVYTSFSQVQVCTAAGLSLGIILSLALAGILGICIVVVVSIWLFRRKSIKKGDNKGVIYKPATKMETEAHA

Ki (Carbonic anhydrase 9) [nM]	Ki (Carbonic anhydrase 12 [1]) [nM]	IC50 (Carbonic anhydrase 12 [2]) [nM]	SMILES
176	–	–	CCOC(=O)c1cc(-c2ccc(C)cc2)n(-c2ccc(S(N)(=O)=O)cc2)n1
7.79	7.78	–	CCn1c(-c2cc(C(=O)O)[nH]n2)cc2ccccc21
225	–	–	CCOC(=O)c1cc(-c2ccccc2)n(-c2ccc(S(N)(=O)=O)cc2)n1

More lines, now with the values behind:

SMILES	Ki (Carbonic anhydrase 9) [nM]	Ki (Carbonic anhydrase 12 [1]) [nM]	IC50 (Carbonic anhydrase 12 [2]) [nM]
NS(=O)(=O)c1ccc(C(=O)N/N=C/c2ccccc2O)cc1	18.9	32.7	–
CCOC(=O)c1cc(-c2ccc([N+](=O)[O-])cc2)n(-c2ccc(S(N)(=O)=O)cc2)n1	20.5	–	–
Cc1ccc(-c2nn(-c3ccc(S(N)(=O)=O)cc3)cc2/C=N/Nc2ccc(S(N)(=O)=O)cc2)cc1	–	–	144
